From patent publication US4377576A, “5-(Heterocyclic amino-propionyl)-5,10-dihydro-11H-dibenzo[b,e][1,4]diazepin-11-ones” (Karl Thomae Gesellschaft mit beschrankter Haftung, priority 1980, dated 1983)
Structures can show the parent of a compound that is named as a salt.

Key:
Acute toxicity = details: in vivo, po; Mouse
Method: The acute toxicity was determined in male CrL-COBS-CD-I(ICR) mice of an average body weight of 22 to 24 gm which had been fasted for 24 hours. Different doses of each compound were administered to groups of 5 to 10 animals by means of an esophageal tube, and the LD50 -values were calculated by the method of D. J. Finney (supra).

[1] = system: gastric secretion (free and total hydrochloric acid in the gastric fluid); assay: Inhibition of gastric fluid secretion (liberation of acid), pylorus ligature, method of Shay et al.; format: in vivo, male Crl:COBS (WI) BR Albino rats; details: Rat, i.d., 4 hours after pylorus ligature
Method: The inhibiting activity on the gastric secretion was tested in male Crl:COBS (WI) BR Albino rats having a weight of 100 to 125 gm, according to the method of Shay et al., Gastroenterology 26, 906 (1954). The rats were fasted for 24 hours and then anesthetized with ether. The […] was opened, and the pylorus was tied up. […] The control animals received the same volume of the vehicle (0.2% methyl cellulose solution). After 4 hours the animals were killed by dislocating the neck vertebra, the stomachs were removed, opened along the great curvature and the gastric fluid collected. The free and total hydrochloric acid in the gastric fluid was measured by titration with N/10 sodium hydroxide solution. The results were determined in percent from the data received from the treated and untreated animals. The ED50 values were calculated by linear regression analysis of the probits according to the method described by D. J. Finney, Probit Analysis, Cambridge University Press, 1971.

stomach ulcers = assay: Inhibiting effect on the formation of stomach ulcers (acetyl salicylic acid and close-meshed wire cage), method of P. A. Brown; format: in vivo, female Crl:COBS-CD(SD)Br rats; details: po, 0.5 h; Rat, p.o., acetyl salicylic acid 30 min after compound, then wire cage; read-out: Ulcer Inhibition ED50
Method: The inhibiting effect on the formation of stomach ulcers was tested in female Crl:COBS-CD(SD)Br rats having a weight of 130 to 160 gm, according to the method of P. A. Brown, European J. Pharmacol. 51, 275 (1978). The animals were fasted for 24 hours, and the compounds were suspended in a 0.2% methyl cellulose solution and administered to the animals using an esophageal tube. After 30 minutes the animals received acetyl salicylic acid perorally at a dose of 8 mg/kg, and after another 30 minutes the animals were placed at room temperature into a close-meshed wire cage. After one hour the animals were killed by dislocating the neck vertebra, the stomach was removed, opened by cutting along the great curvature, the inner side was outwardly spread out on a test tube, and the presence of stomach ulcers was recorded. The activity of the compounds was determined by counting the numbers of stomachs which were free of ulcers. The ED50 was calculated according to the method described by J. T. Litchfield and F. Wilcoxon, J. Pharmac. Exp. Therap. 96, 99 (1949).

[2] = Mydriasis: effect on the size of the pupil; set-up: species or system male Crl:COBS-CD(SD)BR rats; details: in vivo, po; Rat, percent of maximum pupil diameter obtained by atropine, 30-120 min
Method: The effect on the size of the pupil was tested in male Crl:COBS-CD(SD)BR rats having a body weight of 100 to 130 gm by using a […]-binocular microscope with a graduated lens and a 10-fold magnification. The compounds were suspended in a 0.2% methyl cellulose solution and administered using an esophageal tube; groups of 5 animals were used per dose. The control animals received the same volume (1 ml/100 gm of body weight) of the vehicle. The diameter of the pupil was measured before administering the test compound, and 30, 60, 90 and 120 minutes after the treatment. The activity was expressed in percent with regard to the maximum diameter obtained by means of atropine. The ED50 was determined by linear regression analysis of the probits according to the method described by D. J. Finney (supra).

| Structure (SMILES) | LD50 (Acute toxicity) [mg/kg] | ED50 [1] [mg/kg] | ED50 (stomach ulcers) [mg/kg] | ED50 [2] [mg/kg] |
| --- | --- | --- | --- | --- |
| Cl.O=C1Nc2ccccc2N(C(=O)CCN2CCCC2)c2ccccc21 [A, 5,10-dihydro-5-(3-pyrrolidino-propionyl)-11H-dibenzo[b,e][1,4]diazepin-11-one hydrochloride] | 609 | 0.2 | 1.27 | 3.61 |
| CN1C(=O)c2ccccc2N(C(=O)CCN2CCCC2)c2ccccc21 [B, 5,10-dihydro-10-methyl-5-(3-pyrrolidino-propionyl)-11H-dibenzo[b,e,][1,4]diazepin-11-one hydrochloride] | 574 | 0.73 | 2.05 |  |
| Cl.O=C1Nc2ccccc2N(C(=O)CCN2CCCCC2)c2ccccc21 [C, 5,10-dihydro-5-(3-piperidino-propionyl)-11H-dibenzo[b,e][1,4]diazepin-11-one hydrochloride] | 813 | 1.6 | 2.1 | 3.84 |
| O=C1Nc2ccccc2N(C(=O)CN2CCCC2)c2ccccc21 [D, 5,10-dihydro-5-(pyrrolidino-acetyl)-11H-dibenzo[b,e][1,4]diazepin-11-one] | 860 | 8.15 | 10.2 | 9.91 |
| CN1C(=O)c2ccccc2N(C(=O)CN2CCCC2)c2ccccc21 [E, 5,10-dihydro-10-methyl-5-(pyrrolidino-acetyl)-11H-dibenzo[b,e,][1,4]diazepin-11-one hydrochloride] | 816 | 18.1 | 8.4 | 9.84 |
| O=C1Nc2ccccc2N(C(=O)CN2CCCCC2)c2ccccc21 [F, 5,10-dihydro-5-(piperidino-acetyl)-11H-dibenzo[b,e,][1,4]diazepin-11-one] | 600 | 6.17 | 10.4 | 5.82 |
